Molecules are shown by their SMILES.

The subject of the test is RSV strain A2. The test is described as follows: in vitro cytoprotection assay against RSV in Hep2 cells. Format: cell-based. The note with it: human respiratory syncytial virus, HEp-2, 96 h; 1 uM compound; RSV-induced cytopathic effect in Hep2 cells, 4 days, Cell TiterGlo; read-out: RSV % inh. @ 1 uM. The protocol:
Antiviral activity against RSV was determined using an in vitro cytoprotection assay in Hep2 cells. […] The method used is similar to methods previously described in Chapman J et al., “RSV604 a novel inhibitor of respiratory syncytial virus replication,” Antimicrob Agents Chemother, 51(9):3346-53 (2007).
Hep2 cells were obtained from ATCC (Manassas, Va.) and maintained in MEM media supplemented with 10% fetal bovine serum and penicillin/streptomycin. Cells were passaged twice a week and kept at subconfluent stage. Commercial stock of RSV strain A2 (Advanced Biotechnologies, Columbia, Md.) was titered before compound testing to determine the appropriate dilution of the virus stock that generates desirable cytopathic effect in Hep2 cells.
For antiviral tests, Hep2 cells were seeded into 96-well plates 24 hours before the assay at a density of 3,000 cells/well. On a separate 96well plate, tested compounds were serially diluted in cell culture media. Eight concentrations in 3-fold serial dilution increments were prepared for each tested compound and 100 uL/well of each dilution was transferred in duplicate onto plates with seeded Hep2 cells. Subsequently, appropriate dilution of virus stock previously determined by titration was prepared in cell culture media and 100 uL/well was added to test plates containing cells and serially diluted compounds. Each plate included three wells of infected untreated cells and three wells of uninfected cells that served as 0% and 100% virus inhibition control, respectively. Following the infection with RSV, testing plates were incubated for 4 days in a tissue culture incubator. After the incubation, RSV-induced cytopathic effect was determined using a Cell TiterGlo reagent (Promega, Madison, Wis.) followed by a luminescence read-out. The percentage inhibition was calculated for each tested concentration relative to the 0% and 100% inhibition controls and the EC50 value for each compound was determined by non-linear regression as a concentration inhibiting the RSV-induced cytopathic effect by 50%. Ribavirin (purchased from Sigma, St. Louis, Mo.) was used as a positive control for antiviral activity.
A general note: Cytopathic effects are the visible damage that an infection or toxin causes in cultured cells.
In the case of `NC(=O)CCNC(=O)c1cc2c(s1)-c1ccccc1N(C(=O)c1ccc(NC(=O)c3cccnc3N3CCCC3)cc1)CC2` [Example 60], the inhibition at 1 µM worked out at 35%.
With `NC(=O)c1cc2c(s1)-c1ccccc1N(C(=O)c1ccc(NC(=O)c3cccnc3N3CCCC3)cc1)CC2` [Example 61], the inhibition at 1 µM was 84%.
Take `Cn1ccnc1CNC(=O)c1cc2c(s1)-c1ccccc1N(C(=O)c1ccc(NC(=O)c3cccnc3N3CCCC3)cc1)CC2` [Example 62]: the inhibition at 1 µM stood at 90%.
To `O=C(NC1CC1)c1cc2c(s1)-c1ccccc1N(C(=O)c1ccc(NC(=O)c3ccncc3N3CC(F)C3)cc1)CC2` [Example 63] belongs 99%.
The result for `O=C(NC1CC1)c1cc2c(s1)-c1ccccc1N(C(=O)c1ccc(NC(=O)c3cccnc3N3CC(F)(F)C3)c(F)c1)CC2` [Example 64] reads 99%.
The result for `Cc1cc(C(=O)Nc2ccc(C(=O)N3CCc4cc(C(=O)NC5CC5)sc4-c4ccccc43)cc2)c(N2CCCC2)nn1` [Example 65] reads 95%; that for `Cc1cc(C(=O)Nc2ccc(C(=O)N3CCc4cc(C(=O)NC5CC5)sc4-c4ccccc43)cc2)c(N2CC(F)(F)C2)nn1` [Example 67], 98%.

The values above are taken from patent US8999969B2, “Anti-RSV compounds” (Gilead Sciences, Inc., priority 2009, dated 2015).
